The text below walks through data of US20040019088A1, “Use of Epothilones in the treatment of brain diseases associated with proliferative processes” (Schering AG, priority 2002, published 2004).

By AUC(0-t) is commonly meant exposure summed from dosing to a finite time, without extrapolation to infinity. High values mean high exposure, low ones low exposure. A word on the Kp: it is the ratio of the level in a tissue or fluid to that in plasma or blood.

Each structure is given as a SMILES string. Several values for one entry are separate records, joined by “and”; a condition that tells them apart may be missing. Equal entries are not always repeated. Marks after values point to notes of the source that are not given here.

The nature of data set [1]: Mouse bolus injection assay (blood and brain levels of Epothilones). As to conditions: for Brain plasma ratio: after 20 min, iv application; for concentration at 10 min / concentration at 20 min / concentration at 40 min / AUC(0-t) / Kp: male, SCID, mouse, in vivo, 5 mg/kg; for AUC(0-t) / Kp: iv. The procedure: Mouse Bolus Injection Assay
(In Vivo Assay for the Evaluation of Blood and Brain Levels of Epothilones)
Male SCID mice (20-25 g, non-leaky) were treated with a single dose of tritium-labeled Epothilones and paclitaxel (5 mg/kg; 7.4 MBq/mg; in 30% Hydroxypropyl-β-cyclodextrin (HPβCD)/NaCl iv bolus injection). Partitioning of radioactivity between blood and brain was measured by liquid scintillation counting (LSC) and HPLC-radioflow at three time points (10, 20 and 40 min) after injection.

Data set [2] is described as follows: Tolerability (deaths, body weight change) in the U373 glioma study. The note with it: for BWC d 7-17 (Body Weight Change) / Deaths/total (d): NMRI nu/nu-mice. The format is in vivo, NMRI nu/nu-mice. As for the experimental part: (§1) Female NMRI nu/nu-mice (20-28 g) were used for this experiment. Human U373 glioma cells were implanted s.c. (1×10^7/mouse) as well as i.cer. (2×10^5/mouse) on day 0. Treatment was started on day 7 when the s.c. tumors were approximately 0,05 cm^3 in size. […] After termination of the experiment, the size of the brain tumors was determined (Table 2).

For a further data set, the system named is Human U373 glioma cells. As to the kind of experiment: In vivo efficacy against xenografted (s.c.) and intracerebral human glioma. As to conditions: for i. cer. Brain Tumor Volume d 32: i.cer. U373 in NMRI nu/nu-mice; for RTV s.c. Tumors d 25 (Relative Tumor Volume): s.c. U373 in NMRI nu/nu-mice. As for the experimental part: In vivo assay for the evaluation of efficacy of Epothilones against xenografted and intracerebral human glioma.
as §1
(In general: Xenograft models place foreign cells or tissue in a host animal.)

The conditions of data set [3]: in vivo; cited from earlier work.
[4] abbreviates: 5 mg/kg iv bolus, 3H-labeled, male SCID mice.
Setting [5] is: 10 min after 5 mg/kg iv bolus, 3H-labeled, male SCID mice.
The mark [6] stands for this setting: 20 min after 5 mg/kg iv bolus, 3H-labeled, male SCID mice.
[7] abbreviates: 40 min after 5 mg/kg iv bolus, 3H-labeled, male SCID mice.
Setting [8] is: Group B: 9 mg/kg i.v., days 7, 14.
Where [9] appears, read: Group C: 2 mg/kg i.v., days 7, 9, 11, 14, 16, 18.
Where [10] appears, read: both schedules (groups B and C) vs. untreated control.

Turning to `CCCC1C(=O)C(C)(C)C(O)CC(=O)OC(C(C)=Cc2csc(C)n2)CC=C(C)CCCC(C)C1O` (stereo not drawn) [Compound 1, 4,8-dihydroxy-16-(1-methyl-2-(2-methyl-4-thiazolyl)-ethenyl)-1-oxa-7-(1-propyl)-5,5,9,13-tetramethyl-cyclohexadec-13-ene-2,6-dione], the “Brain AUC (0-40 min)” value in data set [1] (setting [4]) came out at 21 µg·min/mL. In data set [1], the Brain plasma ratio result is recorded as “higher brain plasma ratio”; the concentration at 10 min is 800 ng/mL and 300 ng/g; the concentration at 20 min is 600 ng/mL and 800 ng/g; the concentration at 40 min was 300 ng/mL and 600 ng/g. In data set [1], this molecule showed an exposure AUC(0-t) of 333 ng·h/mL and a Kp of 1.
With `CCCC1C(=O)C(C)(C)C(O)CC(=O)OC(C(C)=Cc2csc(C)n2)CC2OC2(C)CCCC(C)C1O` (stereo not drawn) [Compound 2], in data set [1] (setting [4]), the “Brain AUC (0-40 min)” value amounted to 35 µg·min/mL and the “Plasma AUC (0-40 min)” value came out at 31 µg·min/mL. In data set [1] (setting [5]), the Brain conc. mean came out at 1.1 µg/g and the Plasma conc. mean stood at 1600 ng/mL. Moreover, in data set [1] (setting [6]), the Brain conc. mean came to 1.1 µg/g and the Plasma conc. mean is 700 ng/mL. Besides, in data set [1] (setting [7]), the Brain conc. mean worked out at 0.8 µg/g and the Plasma conc. mean worked out at 300 ng/mL. Besides, the Brain plasma ratio result in data set [1] is reported as “higher brain plasma ratio”. Besides, the “AUC Ratio Brain/Plasma” value in data set [1] (partial AUC 0-40 min, 5 mg/kg iv bolus, male SCID mice) stood at 1.2.
On to `C=CCC1C(=O)C(C)(C)C(O)CC(=O)OC(c2ccc3sc(C)nc3c2)CC2OC2(C)CCCC(C)C1O` (stereo not drawn) [Compound 3, 7,11-dihydroxy-3-(2-methylbenzothiazol-5-yl)-10-(prop-2-en-1-yl)-8,8,12,16-tetramethyl-4,17-dioxabicyclo[14.1.0]heptadecane-5,9-dione], for which, in data set [2] (setting [8]), the “BWC d 7-17 (Body Weight Change)” value was −7% and the “Deaths/total (d)” value is 0/10. Also, in data set [2] (setting [9]), the “BWC d 7-17 (Body Weight Change)” value was −3% and the “Deaths/total (d)” value is given as 1/10. Moreover, the Body weight loss result in data set [2] (treatment groups B and C) was “Only a moderate body weight loss (not significant)”. The “Brain AUC (0-40 min)” value in data set [1] (setting [4]) worked out at 20 µg·min/mL. Further, in data set [1], the concentration at 10 min was 1200 ng/mL and 900 ng/g; the concentration at 20 min is 700 ng/mL and 300 ng/g; the concentration at 40 min is 300 ng/mL and 600 ng/g; the area under the curve AUC(0-t) is 417 ng·h/mL. Moreover, in data set [1], the Kp turned out to be 0.8. In the data set with Human U373 glioma cells (setting [8]), the “i. cer. Brain Tumor Volume d 32” value is listed as 0.002* mm^3 and the “RTV s.c. Tumors d 25 (Relative Tumor Volume)” value came out at 1.15. Besides, in the data set with Human U373 glioma cells (setting [9]), the “i. cer. Brain Tumor Volume d 32” value is recorded as 0.96 mm^3 and the “RTV s.c. Tumors d 25 (Relative Tumor Volume)” value is 1.40. For the same molecule, in the data set with Human U373 glioma cells (setting [10]), the “Therapeutic effect on i.cer. U373 brain tumors” value is “significant therapeutic effect” and the “Therapeutic effect on s.c. U373 tumors” value is reported as “significant therapeutic effect”.
Consider `CC(=O)O[C@H]1C(=O)[C@@]2(C)[C@H]([C@H](OC(=O)c3ccccc3)[C@]3(O)C[C@H](OC(=O)[C@H](O)[C@@H](NC(=O)c4ccccc4)c4ccccc4)C(C)=C1C3(C)C)[C@]1(OC(C)=O)CO[C@@H]1C[C@@H]2O` [Paclitaxel, reference compound], for which the “Ability to penetrate the BBB” value in data set [3] is given as “only low ability to penetrate the BBB”. Also, the “Brain AUC (0-40 min)” value in data set [1] (setting [4]) turned out to be 0 µg·min/mL. Also, in data set [1] (setting [5]), the Brain conc. mean entry is listed as “<LOQ”. In addition, in data set [1] (setting [6]), the Brain conc. mean result is on record as “<LOQ”. Further, the Brain conc. mean entry in data set [1] (setting [7]) is “<LOQ”. Further, the “Detection in the brain” value in data set [1] (40 minutes after application) is “detected in the brain in considerable amounts”. Also, the “Concentration in brain samples” value in data set [1] (all brain samples (10, 20, 40 min)) was “below the limit of quantitation”. Also, in data set [1], the concentration at 10 min came to 800 ng/mL, the concentration at 20 min is 600 ng/mL, the concentration at 40 min is 200 ng/mL and the AUC(0-t) was 317 ng·h/mL.
